The values below come from ChEMBL document CHEMBL1150341, “Anti-Helicobacter pylori activity of derivatives of the phthalide-containing antibacterial agents spirolaxine methyl ether, CJ-12,954, CJ-13,013, CJ-13,102, CJ-13,104, CJ-13,108 and CJ-13,015” (2008).

What all share (assay type): functional
For test [1], the system named is Helicobacter pylori. Description: Antibacterial activity against Helicobacter pylori NCTC-11637 after 24 hrs. Particulars: NCTC-11637, 24 h.
Test [2] relates to Helicobacter pylori. Put plainly: Antibacterial activity against Helicobacter pylori NCTC-11637 after 5 days by serial dilution method.
Test [3] relates to Helicobacter pylori. Put plainly: Antibacterial activity against Helicobacter pylori NCTC-11637 assessed as zone of inhibition at 500 ug/disk. Particulars: read-out: IZ.
Test [4] has as its system Helicobacter pylori. Put plainly: Antibacterial activity against Helicobacter pylori assessed NCTC-11637 as zone of inhibition at 0.01 ug/disk. Particulars: read-out: IZ.
In test [5] the test system is Helicobacter pylori. Put plainly: Antibacterial activity against Helicobacter pylori assessed NCTC-11637 as zone of inhibition at 2 ug/disk. Particulars: read-out: IZ.
In test [6] the test system is Helicobacter pylori. Put plainly: Antibacterial activity against Helicobacter pylori assessed NCTC-11637 as zone of inhibition at 0.02 ug/disk. Particulars: read-out: IZ.
Test [7] concerns Helicobacter pylori. Description: Antibacterial activity against Helicobacter pylori NCTC-11637 assessed as zone of inhibition at 0.5 ug/disk. Particulars: read-out: IZ.
The test system of test [8] is Helicobacter pylori. Description: Antibacterial activity against Helicobacter pylori NCTC-11637 assessed as zone of inhibition at 10 ug/disk. Particulars: read-out: IZ.
The mark [9] stands for this setting: Helicobacter pylori, 120 h, read-out: MBC.

In brackets after ≈: the same amount, converted by molar mass. Bounds are passed on as bounds.

On to `COc1cc(OC)c2c(c1)C(CCCCCCCCCCCCC(C)O)OC2=O` (stereo not drawn), for which inhibition of growth in test [1] (MIC) required 12.5 µg/mL (≈ 30.7 µM). Moreover, the MBC in test [2] (setting [9]) was 50 µg/mL (≈ 123 µM). Moreover, in test [3], the zone of inhibition at 500 µg/disc came out at 15 mm.

In turn, `COc1cc(OC)c2c(c1)[C@@H](CCCCC[C@H]1CCC[C@]3(CC[C@H](C)O3)O1)OC2=O` came in with an MIC in test [1] of 0.125 µg/mL (≈ 0.299 µM). In test [2] (setting [9]), the MBC turned out to be 0.125 µg/mL (≈ 0.299 µM).

In test [1], `COc1cc(O)cc2c1C(=O)OC2CCCCCC1CCCC2(CCC(C)O2)O1` (stereo not drawn) [SPIROLAXINE] yielded an MIC of 0.2 µg/mL (≈ 0.494 µM). Besides, the MBC in test [2] (setting [9]) is more than 2 µg/mL. For the same compound, in test [4], the zone of inhibition at 0.01 µg/disc was 15 mm.

In test [1], `COc1cc(OC)c2c(c1)C(CCCCCCCCCC(=O)CCC(C)=O)OC2=O` (stereo not drawn) had an MIC of 2.5 µg/mL (≈ 5.97 µM). For the same compound, the MBC in test [2] (setting [9]) turned out to be 5 µg/mL (≈ 11.9 µM). Further, the zone of inhibition at 2 µg/disc in test [5] came to 15 mm.

With `COc1cc(OC)c2ccn(CCCCCCCCCCCCC(C)=O)c2c1`, it took 50 µg/mL (≈ 129 µM) to inhibit growth in test [1] (MIC). Also, the MBC in test [2] (setting [9]) was found to be 50 µg/mL (≈ 129 µM).

`COc1cc(OC)c2c(c1)[C@H](CCCCCC[C@H]1CC[C@]3(CC[C@H](C)O3)O1)OC2=O`: the MIC in test [1] was 20 µg/mL (≈ 47.8 µM). In test [2] (setting [9]), the MBC was 100 µg/mL (≈ 239 µM).

The compound `COc1cc(OC)c2c(c1)[C@@H](CCCCCC[C@H]1CC[C@]3(CC[C@H](C)O3)O1)OC2=O` came in with an MIC in test [1] of 0.3 µg/mL (≈ 0.717 µM). Further, in test [2] (setting [9]), the MBC amounted to 0.3 µg/mL (≈ 0.717 µM).

In the case of `COc1cc(OC)c2c(c1)C(CCCCCCC1CCC3(CCC(C)O3)O1)OC2=O` (stereo in doubt), the MIC in test [1] was 0.02 µg/mL (≈ 0.0478 µM). The MBC in test [2] amounted to 0.2 µg/mL (≈ 0.478 µM).

Take `COc1cc(OC)c2ccn(CCCCCCCCCC(=O)CCC(C)=O)c2c1`: in test [1], the MIC is 10 µg/mL (≈ 24.9 µM). In addition, the MBC in test [2] (setting [9]) was found to be 20 µg/mL (≈ 49.8 µM).

With `COc1cc(OC)c2c(c1)[C@@H](CCCCCC[C@H]1CC[C@@]3(CC[C@H](C)O3)O1)OC2=O`, inhibition of growth in test [1] (MIC) required 0.3 µg/mL (≈ 0.717 µM). In addition, the MBC in test [2] (setting [9]) stood at 0.3 µg/mL (≈ 0.717 µM).

`COc1cc(OC)c2c(c1)C(CCCCCCC1CCC3(CCC(C)O3)O1)OC2=O` (stereo in doubt; 5): in test [6], the zone of inhibition at 0.02 µg/disc was determined as 15 mm. In addition, the MBC in test [2] is 0.02 µg/mL (≈ 0.0478 µM).

Turning to `COc1cc(OC)c2c(c1)C(CCCCCCCCCC(CCC(C)=O)OC(C)=O)OC2=O` (stereo not drawn), it took 1.25 µg/mL (≈ 2.7 µM) to inhibit growth in test [1] (MIC). Further, the MBC in test [2] (setting [9]) is 2.5 µg/mL (≈ 5.4 µM). In addition, the zone of inhibition at 0.5 µg/disc in test [7] is 15 mm.

The compound `COc1cc(OC)c2c(c1)[C@@H](CCCCC[C@H]1CCC[C@]3(CC[C@@H](C)O3)O1)OC2=O` came in with an MIC in test [1] of 0.5 µg/mL (≈ 1.19 µM). The MBC in test [2] (setting [9]) was 1 µg/mL (≈ 2.39 µM).

On to `COc1cc(OC)c2c(c1)C(CCCCCCCCCCCCC(C)=O)OC2=O` (stereo not drawn), for which, in test [1], the MIC was 10 µg/mL (≈ 24.7 µM). Moreover, in test [2] (setting [9]), the MBC was determined as 10 µg/mL (≈ 24.7 µM). In test [8], the zone of inhibition at 10 µg/disc was 15 mm.

Turning to `COc1cc(OC)c2ccn(CCCC3CCCC4(CCCCO4)O3)c2c1` (stereo not drawn), the lowest concentration to inhibit growth in test [1] (MIC) was 20 µg/mL (≈ 53.5 µM). Besides, the MBC in test [2] (setting [9]) was 40 µg/mL (≈ 107 µM).

In test [1], `COc1cc(OC)c2c(c1)[C@H](CCCCCC[C@H]1CC[C@@]3(CC[C@H](C)O3)O1)OC2=O` displayed an MIC of 20 µg/mL (≈ 47.8 µM). Moreover, in test [2] (setting [9]), the MBC came to 100 µg/mL (≈ 239 µM).

The compound `COc1cc(OC)c2ccn(CCCCCCCCC(C)=O)c2c1` returned an MIC in test [1] of 5 µg/mL (≈ 15.1 µM). In addition, the MBC in test [2] (setting [9]) is 10 µg/mL (≈ 30.2 µM).

Regarding `COc1cc(OC)c2ccn(CCCCCCCCCC(CCC(C)=O)OC(C)=O)c2c1` (stereo not drawn), the MIC in test [1] was more than 100 µg/mL. Besides, the MBC in test [2] (setting [9]) is more than 100 µg/mL.

`COc1cc(OC)c2ccn(CCCCCCCCCCCCC(C)O)c2c1` (stereo not drawn): the MIC in test [1] was more than 100 µg/mL. In test [2] (setting [9]), the MBC was more than 100 µg/mL.

Broadly, the MIC is the smallest concentration in the dilution series that meets the test's criterion for growth inhibition. A lower MIC goes with a more susceptible organism. As usually defined, the MBC is the smallest concentration meeting the test's criterion for killing.
